Reference: publication PMC5821946, “Immunomodulatory Effects of Diterpene Quinone Derivatives from the Roots of Horminum pyrenaicum in Human PBMC” (Oxidative Medicine and Cellular Longevity, 2018)

Key:
[1] = system: neopterin formation by GTP-cyclohydrolase 1 (GTP-CH-I) in PBMC; assay: Neopterin formation in PBMC supernatants (ELISA) after 48 h treatment; assay type: cell-based, human; conditions: PHA-stimulated PBMC; data not shown; insufficient repetitions for (1) and (3)
Procedure: The study was performed in accordance with the Declaration of Helsinki. PBMC were isolated from healthy donors who gave written consent that their donated blood may be used for scientific purposes, in case when it was not selected for transfusion. The PBMC were isolated by density gradient centrifugation as described earlier. After isolation, the cells were washed three times with phosphate buffered saline containing 1 μM ethylenediaminetetraacetic acid and subsequently they were maintained in RPMI 1640 (Sigma Aldrich, Vienna, Austria) supplemented with 2 mM L-glutamine, 10% heat-inactivated fetal calf serum (Biochrom, Germany) and 50 μg/mL gentamicin (Lonza-BioWhittaker, USA), at 37°C in a humidified atmosphere containing 5% CO2.
(§1) The cells were seeded in 48-well plates (1.5 × 10^6 cells/mL/well) and treated either with increasing concentrations of the extract, the individual fractions or the pure compounds, dissolved in DMSO. The PBMC were either stimulated with 10 μg/mL of the mitogen lectin phytohaemagglutin (PHA) after 30 minutes of treatment, or were left unstimulated. In addition to PHA, the stimulatability of the PBMC was controlled for each experiment by treatment with the lectin concanavalin A (ConA) at a concentration of 10 μg/mL. After 48 h of incubation, cell culture supernatants were collected and stored at −20°C until analysis. In addition, 1-methyl-D-tryptophan (Sigma-Aldrich, Vienna, Austria) was used as a postive control for the suppression of IDO-1 acitivity.
Neopterin concentrations were measured by ELISA (BRAHMS, Germany), according to the manufacturers' instructions with the detection limit of 2 nmol/L.
The half maximal (50% inhibitory) concentration (IC50) was calculated by using the CalcuSyn software (Biosoft, UK) according the concept of Chou and Talalay. […] P-values below 0.05 were considered to indicate significance. Results are expressed as percent of unstimulated and PHA-stimulated control cells and are shown as mean ± standard error of the mean (SEM).

[2] = molecular target: T1, indoleamine 2,3-dioxygenase-1 (IDO-1) (Homo sapiens, UniProt P14902); assay: Tryptophan breakdown to kynurenine (Kyn/Trp by HPLC) in PBMC supernatants after 48 h treatment; assay type: cell-based
T1 construct: PBMC were isolated from healthy donors who gave written consent that their donated blood may be used for scientific purposes; endogenous in cells; host or cells: primary human PBMC from healthy blood donors, stimulated with 10 μg/mL PHA
T1 sequence (P14902 whole entry): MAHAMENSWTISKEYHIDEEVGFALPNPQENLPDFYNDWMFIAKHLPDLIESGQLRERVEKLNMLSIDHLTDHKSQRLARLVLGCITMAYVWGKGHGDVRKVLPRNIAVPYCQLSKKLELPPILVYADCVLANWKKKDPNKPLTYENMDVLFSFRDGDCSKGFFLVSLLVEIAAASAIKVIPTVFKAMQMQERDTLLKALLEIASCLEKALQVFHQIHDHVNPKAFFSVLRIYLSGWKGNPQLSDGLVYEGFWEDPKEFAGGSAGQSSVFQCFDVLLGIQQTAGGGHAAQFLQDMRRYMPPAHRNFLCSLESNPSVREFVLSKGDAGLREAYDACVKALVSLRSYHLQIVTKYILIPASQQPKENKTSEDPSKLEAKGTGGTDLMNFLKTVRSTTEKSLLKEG
Procedure: The study was performed in accordance with the Declaration of Helsinki. PBMC were isolated from healthy donors who gave written consent that their donated blood may be used for scientific purposes, in case when it was not selected for transfusion. The PBMC were isolated by density gradient centrifugation as described earlier.
as §1, with “The” for “The cells were seeded in 48-well plates (1.5 × 10^6 cells/mL/well) and treated either with increasing concentrations of the extract, the individual fractions or the pure compounds, dissolved in DMSO. The”
Briefly, the HPLC analysis of tryptophan and kynurenine was performed on a ProStar Varian system (USA) using rp-18 columns (Merck, Germany) and acetate buffer as eluent (flow-rate: 0.9 mL/min) according to the protocol described earlier. 3-Nitro-L-tyrosine (Sigma Aldrich, Austria) was used as an internal standard. Kynurenine and tryptophan standards were purchased from Sigma-Aldrich (Austria). Kynurenine and 3-nitro-L-tyrosine were detected by UV-absorbance at 360 nm wavelength (Shimadzu SPD-6A UV detector, Austria), tryptophan was detected by its fluorescence with an excitation wavelength of 286 nm and an emission wavelength of 366 nm (ProStar 360 detector, Varian, USA). The Kyn/Trp was calculated, which is an estimate of IDO-1 activity and expressed in μmol Kyn / mmol Trp. The sensitivity of the measurements was 0.5 μmol/L kynurenine and 0.1 μmol/L tryptophan.
P-values below 0.05 were considered to indicate significance. Results are expressed as percent of unstimulated and PHA-stimulated control cells and are shown as mean ± standard error of the mean (SEM).

SMILES | Inhibition of neopterin formation (in words) [1] | IC50 [2] [µM]
COc1c(O)c2c(c(O)c1C(C)C)C(=O)C[C@H]1C(C)(C)CCC[C@]21C [compound 6, inuroyleanol] | no dose-dependent effect | 
CC(C)C1=C(O)C(=O)C2=C(C1=O)[C@H](O)C[C@H]1C(C)(C)CCC[C@]21C [compound 1, horminone] | inhibition of neopterin formation | 346
COC1=C(C(C)C)C(=O)c2c(O)cc3c(c2C1=O)C=CC(=O)C3(C)C [compound 3, agastaquinone] | no dose-dependent effect | 46.3
COC1=C(C(C)C)C(=O)c2c(O)cc3c(c2C1=O)C=CCC3(C)C [compound 8, 3-deoxyagastaquinone] | inhibition of neopterin formation | 79.5
CC(=O)O[C@@H]1C[C@H]2C(C)(C)CCC[C@]2(C)C2=C1C(=O)C(C(C)C)=C(O)C2=O [compound 2, 7-O-acetylhorminone] | inhibition of neopterin formation | 71.7
C=C1[C@@H](C)CC[C@]2(C)c3c(O)c(OC)c(C(C)C)c(O)c3C(=O)C[C@@H]12 [compound 7, agastol] | minor | 165
